PubChem BioAssay AID248 (DTP/NCI, 2004)
Values joined by “and” are separate entries in the source; they are usually repeats but may differ in a detail not shown here. Equal values may be shown once. Inconclusive results and toxic doses are left out.

System: L1210 leukemia ip in BDF1 mice, survival T/C
Test: NCI In Vivo Anticancer Drug Screen. Data for tumor model L1210 Leukemia (intraperitoneal) in B6D2F1 (BDF1) mice
Conditions: higher = longer survival
How it was run: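 Tumor was transplanted into mice, which were then dosed with test compound or vehicle alone. Survival was recorded for each group, and the treated figure was expressed relative to the control figure.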

[1] = endpoint: mean survival time, dose: 100.0 mg/kg/injection, schedule: Q04DX003 (ip), vehicle: Klucel (hydroxypropylcellulose) (HPC)
[2] = endpoint: mean survival time, dose: 200.0 mg/kg/injection, schedule: Q04DX003 (ip), vehicle: Klucel (hydroxypropylcellulose) (HPC)
[3] = endpoint: mean survival time, dose: 400.0 mg/kg/injection, schedule: Q04DX003 (ip), vehicle: Klucel (hydroxypropylcellulose) (HPC)

How did the T/C (endpoint: mean survival time, dose: 100.0 mg/kg/injection, schedule: Q01DX001 (ip), vehicle: other) turn out when CCOC(=O)Nc1cc(Cl)c([N+](=O)[O-])c(NC(=O)OCC)n1 was run?
The T/C was 102 % of control.

What about the T/C (endpoint: mean survival time, dose: 200.0 mg/kg/injection, schedule: Q01DX001 (ip), vehicle: other) of the same compound?
The T/C was 91 % of control.

For O=C(O)CS(=O)(=O)c1nc2ccccc2[nH]1, which T/C (endpoint: mean survival time, dose: 100.0 mg/kg/injection, schedule: Q01DX009 (ip), vehicle: carboxymethylcellulose (CMC)) is on record?
The T/C was 94 % of control.

What about the T/C (endpoint: mean survival time, dose: 200.0 mg/kg/injection, schedule: Q01DX009 (ip), vehicle: carboxymethylcellulose (CMC)) of the same compound?
The T/C was 91 % of control.

What about the T/C (endpoint: mean survival time, dose: 400.0 mg/kg/injection, schedule: Q01DX009 (ip), vehicle: carboxymethylcellulose (CMC)) of the same compound?
Its T/C is 91 % of control.

CN(C)N=Nc1ccccc1C(F)(F)F was tested. Which T/C (endpoint: mean survival time, dose: 50.0 mg/kg/injection, schedule: Q01DX009 (ip), vehicle: Klucel (hydroxypropylcellulose) (HPC)) did it give?
Its T/C is 109 % of control.

What about the T/C (endpoint: mean survival time, dose: 100.0 mg/kg/injection, schedule: Q01DX009 (ip), vehicle: Klucel (hydroxypropylcellulose) (HPC)) of the same compound?
Its T/C is 103 % of control and 107 % of control.

What about the T/C [1] of the same compound?
The T/C was 104 % of control.

And the T/C (endpoint: mean survival time, dose: 200.0 mg/kg/injection, schedule: Q01DX009 (ip), vehicle: Klucel (hydroxypropylcellulose) (HPC))?
Its T/C is 107 % of control and 108 % of control.

And the T/C [2]?
The T/C was 104 % of control.

What about the T/C (endpoint: mean survival time, dose: 400.0 mg/kg/injection, schedule: Q01DX009 (ip), vehicle: Klucel (hydroxypropylcellulose) (HPC)) of the same compound?
The T/C was 111 % of control and 114 % of control.

What about the T/C [3] of the same compound?
The T/C was 109 % of control.

O=NN(CCCl)C(=O)Nc1ccc(SCC(=O)O)cc1 was tested. Which T/C (endpoint: mean survival time, dose: 5.0 mg/kg/injection, schedule: Q01DX001 (ip), vehicle: carboxymethylcellulose (CMC)) did it give?
Its T/C is 117 % of control.

What about the T/C (endpoint: mean survival time, dose: 18.0 mg/kg/injection, schedule: Q01DX001 (ip), vehicle: carboxymethylcellulose (CMC)) of the same compound?
The T/C was 161 % of control.

And the T/C (endpoint: mean survival time, dose: 26.0 mg/kg/injection, schedule: Q01DX001 (ip), vehicle: carboxymethylcellulose (CMC))?
Its T/C is 175 % of control.

What does the source list for NC(=O)c1cc(C(N)=O)c(N)nc1N?
T/C [1]: 100 % of control; T/C [2]: 97 % of control; T/C [3]: 94 % of control

Which T/C (endpoint: mean survival time, dose: 25.0 mg/kg/injection, schedule: Q01DX009 (ip), vehicle: saline with Tween-80) does the source give for O=C(Cc1cccc2ccccc12)N/N=C/c1ccccc1O here?
The T/C was 86 % of control.

What about the T/C (endpoint: mean survival time, dose: 50.0 mg/kg/injection, schedule: Q01DX009 (ip), vehicle: saline with Tween-80) of the same compound?
Its T/C is 93 % of control.

What about the T/C (endpoint: mean survival time, dose: 100.0 mg/kg/injection, schedule: Q01DX009 (ip), vehicle: saline with Tween-80) of the same compound?
The T/C was 100 % of control and 89 % of control.

Which results are given for CCC1=C(C[C@H]2NCCc3cc(OC)c(OC)cc32)C[C@H]2c3cc(OC)c(OC)cc3CCN2C1?
T/C (endpoint: mean survival time, dose: 1.0 mg/kg/injection, schedule: Q01DX005 (ip), vehicle: saline): 111 % of control; T/C (endpoint: mean survival time, dose: 1.0 mg/kg/injection, schedule: Q03HX024 (ip), vehicle: saline): 111 % of control; T/C (endpoint: mean survival time, dose: 2.0 mg/kg/injection, schedule: Q01DX005 (ip), vehicle: saline): 107 % of control and 108 % of control; T/C (endpoint: mean survival time, dose: 2.0 mg/kg/injection, schedule: Q01DX009 (ip), vehicle: saline): 103 % of control; T/C (endpoint: mean survival time, dose: 2.0 mg/kg/injection, schedule: Q03HX016 (ip), vehicle: saline): 111 % of control; T/C (endpoint: mean survival time, dose: 2.0 mg/kg/injection, schedule: Q04DX003 (ip), vehicle: saline): 103 % of control and 104 % of control; T/C (endpoint: mean survival time, dose: 2.32 mg/kg/injection, schedule: Q01DX005 (ip), vehicle: saline): 117 % of control; T/C (endpoint: mean survival time, dose: 4.0 mg/kg/injection, schedule: Q01DX005 (ip), vehicle: saline): 119 % of control [middle of 4 runs]; T/C (endpoint: mean survival time, dose: 4.0 mg/kg/injection, schedule: Q01DX005 (sc), vehicle: saline): 122 % of control; T/C (endpoint: mean survival time, dose: 4.0 mg/kg/injection, schedule: Q01DX009 (ip), vehicle: saline): 103 % of control and 119 % of control; T/C (endpoint: mean survival time, dose: 4.0 mg/kg/injection, schedule: Q04DX003 (ip), vehicle: saline): 107 % of control and 105 % of control and 108 % of control; T/C (endpoint: mean survival time, dose: 4.64 mg/kg/injection, schedule: Q01DX005 (ip), vehicle: saline): 116 % of control; T/C (endpoint: mean survival time, dose: 4.64 mg/kg/injection, schedule: Q04DX003 (ip), vehicle: saline): 106 % of control; T/C (endpoint: mean survival time, dose: 8.0 mg/kg/injection, schedule: Q01DX005 (oral), vehicle: saline): 102 % of control; T/C (endpoint: mean survival time, dose: 8.0 mg/kg/injection, schedule: Q01DX005 (sc), vehicle: saline): 119 % of control; T/C (endpoint: mean survival time, dose: 8.0 mg/kg/injection, schedule: Q01DX009 (ip), vehicle: saline): 108 % of control; T/C (endpoint: mean survival time, dose: 8.0 mg/kg/injection, schedule: Q04DX003 (ip), vehicle: saline): 111 % of control [middle of 4 runs]; T/C (endpoint: mean survival time, dose: 9.28 mg/kg/injection, schedule: Q04DX003 (ip), vehicle: saline): 94 % of control; T/C (endpoint: mean survival time, dose: 16.0 mg/kg/injection, schedule: Q01DX005 (oral), vehicle: saline): 116 % of control; T/C (endpoint: mean survival time, dose: 16.0 mg/kg/injection, schedule: Q01DX005 (sc), vehicle: saline): 105 % of control; T/C (endpoint: mean survival time, dose: 16.0 mg/kg/injection, schedule: Q08DX002 (ip), vehicle: saline): 120 % of control; T/C (endpoint: mean survival time, dose: 32.0 mg/kg/injection, schedule: Q01DX001 (sc), vehicle: saline): 110 % of control; T/C (endpoint: mean survival time, dose: 37.12 mg/kg/injection, schedule: Q04DX003 (ip), vehicle: saline): 108 % of control; T/C (endpoint: mean survival time, dose: 64.0 mg/kg/injection, schedule: Q01DX001 (sc), vehicle: saline): 121 % of control; T/C (endpoint: mean survival time, dose: 64.0 mg/kg/injection, schedule: Q04DX003 (ip), vehicle: saline): 102 % of control; T/C (endpoint: median survival time, dose: 4.0 mg/kg/injection, schedule: Q04DX003 (ip), vehicle: saline): 102 % of control; T/C (endpoint: median survival time, dose: 8.0 mg/kg/injection, schedule: Q04DX003 (ip), vehicle: saline): 107 % of control; T/C (endpoint: median survival time, dose: 16.0 mg/kg/injection, schedule: Q04DX003 (ip), vehicle: saline): 110 % of control

Which results are given for O=C1C=C(Nc2cccc(O)c2)c2ccccc2C1=O?
T/C (endpoint: mean survival time, dose: 100.0 mg/kg/injection, schedule: Q04DX003 (ip), vehicle: saline): 94 % of control; T/C (endpoint: mean survival time, dose: 200.0 mg/kg/injection, schedule: Q04DX003 (ip), vehicle: saline): 97 % of control; T/C (endpoint: mean survival time, dose: 400.0 mg/kg/injection, schedule: Q04DX003 (ip), vehicle: saline): 89 % of control

For CN(N=O)c1ccc(/C=C2\C=Cc3ccccc32)cc1, which T/C (endpoint: mean survival time, dose: 50.0 mg/kg/injection, schedule: Q01DX001 (ip), vehicle: carboxymethylcellulose (CMC)) is on record?
The T/C was 96 % of control.

And the T/C (endpoint: mean survival time, dose: 100.0 mg/kg/injection, schedule: Q01DX001 (ip), vehicle: carboxymethylcellulose (CMC))?
Its T/C is 93 % of control.

What about the T/C (endpoint: mean survival time, dose: 200.0 mg/kg/injection, schedule: Q01DX001 (ip), vehicle: carboxymethylcellulose (CMC)) of the same compound?
The T/C was 96 % of control.

And the T/C (endpoint: mean survival time, dose: 400.0 mg/kg/injection, schedule: Q01DX001 (ip), vehicle: carboxymethylcellulose (CMC))?
The T/C was 98 % of control.
